Measurements as given in US6441023B1 (American Home Products Corporation, priority 1997, dated 2002).
Counter-ions that a name gives are not always drawn. Values belong to the compound of their own block, whether it stands above or below them.

Experiments:
MMP 13 [1] = target: T1, MMP 13 (Homo sapiens, UniProt P45452); assay: MMP 13 inhibition (HTS); format: biochemical
MMP 1 = target: T2, MMP 1 (Homo sapiens, UniProt P03956); assay: In vitro collagenase assay (human recombinant fibroblast collagenase); format: biochemical; conditions: for IC50: read-out: MMP 1 IC 50; for inhibition at 10 µM: read-out: MMP 1 % inhibition at 10 micromolar (*)
T2 construct: human recombinant fibroblast collagenase (truncated, mw=18,828, WAR, Radnor)
T2 sequence (P03956 100-269 limits assumed): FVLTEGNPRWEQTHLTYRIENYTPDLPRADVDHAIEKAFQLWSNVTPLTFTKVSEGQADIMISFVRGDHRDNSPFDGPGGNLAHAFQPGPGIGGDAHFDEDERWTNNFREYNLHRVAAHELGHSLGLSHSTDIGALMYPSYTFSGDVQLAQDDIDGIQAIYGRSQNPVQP
Method: The assay is based on the cleavage of a peptide substrate ((Dnp-Pro-Cha-Gly-Cys(iNe)-His-Ala-Lys(NMa)-NH2), Peptide International, Inc.) by collag,enase releasing the fluorescent NMa group which is quantitated on the fluorometer. Dnp quenches the NiIa fluorescence in the intact substrate. […] Substrate is dissolved in methanol and stored frozen in 1 mM aliquots. Collagenase is stored frozen in buffer in 25 µM aliquots. For the assay, substrate is dissolved in HCBC buffer to a final concentration of 10 μM and collagenase to a final concentration of 5 nM. Compounds are dissolved in methanol, DMSO, or HCBC. The methanol and DMSO are diluted in HCBC to <1.0%. Compounds are added to the 96 well plate containing enzyme and the reaction is started by the addition of substrate.
The slope of the line is calculated and represents the reaction rate.
The mean (x±sem) of the control rate is calculated and compared for statistical significance (p<0.05) with drug-treated rates using Dunnett's multiple comparison test.

MMP 9 = target: T3, MMP 9 (Homo sapiens, UniProt P14780); assay: In vitro gelatinase assay (human neutrophil gelatinase B); format: biochemical; conditions: read-out: MMP 9 IC 50
T3 construct: from tissue; host or cells: human neutrophils
Method: The assay is based on the cleavage of the thiopeptide substrate ((Ac-Pro-Leu-Gly(2 mercapto-4 methyl-pentanoyl)-Leu-Gly-OEt), Bachem Bioscience) by the enzyme, gelatinase, releasing the substrate product which reacts calorimetrically with DTNB ((5,5′-dithio-bis(2-nitro-benzoic acid)). The enzyme activity is measured by the rate of the color increase.
The thiopeptide substrate is made up fresh as a 20 mM stock in 100% DMSO and the DTNB is dissolved in 100% DMSO as a 100 mM stock and stored in dark at room temperature. Both the substrate and DTNB are diluted together to 1 mM with substrate buffer (50 mM HEPES pH 7.5, 5 mM CaCl2) before use. The stock of human neutrophil gelatinase B is diluted with assay buffer (50 mnM HEPES pH 7.5, 5 mM CaCl2, 0.02% Brij) to a final concentration of 0.15 mnM.
The increase in OD405 is plotted and the slope of the line is calculated which represents the reaction rate.

TACE = target: T4, TACE (Homo sapiens, UniProt P78536); assay: Procedure for measuring TACE inhibition; format: biochemical; conditions: for IC50: read-out: TACE IC 50
T4 construct: purchased Immunex
Method: Using 96-well black microtiter plates, each well receives a solution composed of 10 μL TACE (Inmunex, final concentration 1 μg/mL), 70 μL Tris buffer, pH 7.4 containing 10% glycerol (final concentration 10 mM), and 10 μL of test compound solution in DMSO ([…], DMSO concentration <1%) and incubated for 10 minutes at room temperature. The reaction is initiated by addition of a fluorescent peptidyl substrate (final concentration 100 μM to each well and then shaking on a shaker for 5 sec.
The reaction is read (excitation 340 nm, emission 420 nm) for 10 min. and the increase in fluorescence over time is plotted as a linear line. The slope of the line is calculated and represents the reaction rate.
The mean (xtsem) of the control rate is calculated and compared for statistical significance (p<0.05) with drug-treated rates using Dunnett's multiple comparison test.

MMP 13 [2] = target: T1, MMP 13; assay: MMP 13 inhibition (manual); format: biochemical; conditions: read-out: MMP 13 IC 50

T3 sequence (P14780 94-707): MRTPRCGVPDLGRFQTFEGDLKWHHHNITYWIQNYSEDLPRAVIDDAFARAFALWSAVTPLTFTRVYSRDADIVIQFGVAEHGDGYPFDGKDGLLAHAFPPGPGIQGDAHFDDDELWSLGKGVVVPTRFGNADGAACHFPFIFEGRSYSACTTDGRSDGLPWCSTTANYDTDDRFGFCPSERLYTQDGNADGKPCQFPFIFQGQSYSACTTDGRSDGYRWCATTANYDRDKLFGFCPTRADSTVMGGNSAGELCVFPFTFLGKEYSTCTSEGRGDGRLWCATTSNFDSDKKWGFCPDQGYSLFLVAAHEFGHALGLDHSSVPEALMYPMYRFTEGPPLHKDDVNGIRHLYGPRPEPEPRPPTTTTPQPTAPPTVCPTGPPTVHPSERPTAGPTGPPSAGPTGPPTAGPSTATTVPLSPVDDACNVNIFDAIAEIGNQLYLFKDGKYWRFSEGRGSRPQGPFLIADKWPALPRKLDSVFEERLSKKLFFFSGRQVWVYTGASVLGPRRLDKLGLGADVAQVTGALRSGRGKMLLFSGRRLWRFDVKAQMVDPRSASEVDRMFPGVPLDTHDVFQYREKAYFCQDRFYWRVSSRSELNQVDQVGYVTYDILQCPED
T4 sequence (P78536 215-824): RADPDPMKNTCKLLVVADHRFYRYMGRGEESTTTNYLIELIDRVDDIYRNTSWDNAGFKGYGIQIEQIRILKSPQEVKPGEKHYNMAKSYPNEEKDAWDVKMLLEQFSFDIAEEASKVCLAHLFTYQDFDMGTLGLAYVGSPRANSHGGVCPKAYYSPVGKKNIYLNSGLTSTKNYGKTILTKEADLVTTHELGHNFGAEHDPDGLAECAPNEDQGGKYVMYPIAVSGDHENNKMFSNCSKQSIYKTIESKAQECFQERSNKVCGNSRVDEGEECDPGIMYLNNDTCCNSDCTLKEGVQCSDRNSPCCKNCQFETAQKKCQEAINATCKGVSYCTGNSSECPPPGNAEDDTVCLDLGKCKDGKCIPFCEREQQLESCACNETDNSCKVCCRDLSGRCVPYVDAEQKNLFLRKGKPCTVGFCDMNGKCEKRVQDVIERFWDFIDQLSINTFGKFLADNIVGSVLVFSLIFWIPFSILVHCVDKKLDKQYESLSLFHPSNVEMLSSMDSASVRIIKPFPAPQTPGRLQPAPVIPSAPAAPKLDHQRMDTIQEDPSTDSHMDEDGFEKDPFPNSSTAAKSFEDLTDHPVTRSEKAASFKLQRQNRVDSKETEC

MMP 13 % inhibition at 0.2 μM (HTS) (MMP 13 [1]): 90%
Compound: 2-(4-Acetylamino-benzenesufanyl)-N-hydroxy-3-phenyl-propionarnide [Example 129]

MMP 13 % inhibition at 36 nM (HTS) (MMP 13 [1]): −45%
Compound: CCCCCCC(C(=O)NO)[S+]([O-])CC(=O)Nc1ccc2ccccc2c1 (stereo not shown) [Example 191, 2-(Naphthalen-2-ylcarbamoylmethanesulfimyl)-cmtanoic acid hydroxyamide]

MMP 13 % inhibition at 36 nM (HTS) (MMP 13 [1]): 22%
Compound: CCCCCCC(C(=O)NO)S(=O)(=O)c1ccc(OS(=O)(=O)c2ccccc2[N+](=O)[O-])cc1 (stereo not shown) [Example 238, 2-Nitro-benzenesulfonic acid 4-(1-hydroxycarbamoyl-heptylsulfonyl)-hydroxyamide]

Compound: CCCCOc1ccc(S(=O)(=O)C2(C(=O)NO)CCN(C)CC2)cc1 [Example 244, 1-Methyl-4-(4-butoxy-benzenesulfonyl)-piperidine-4-carboxylic acid hydroxyamide]
melting point: 118 °C | IC50 (MMP 1): 3.42 µM | IC50 (MMP 9): 9.8 nM | IC50 (TACE): 594 nM | IC50 (MMP 13 [2]): 1.5 nM

Compound: O=C(CCC(C(=O)NO)S(=O)(=O)c1ccccc1C(F)(F)F)NO (stereo not shown) [Example 139, 4-Hydroxycarbamoyl-4-(2-trifiuoromethyl-benzenesulfonyl)-butyric acid hydroxyamide]
MMP 13 % inhibition at 0.2 μM (HTS) (MMP 13 [1]): 8%

inhibition at 0.2 µM (MMP 13 [1]; read-out: MMP 13 % inhibition at 0.2 μM (HTS), 0.2 μM): 7% | inhibition at 1 µM (TACE; read-out: TACE % inhibition at 1 µM): 8.1%
Compound: CC(C)C(SCCc1ccccc1)C(=O)NO (stereo not shown) [Example 117, N-Hydroxy-3-methyl-2-phenethylsulfanyl-butyramide]

melting point: 89 °C | inhibition at 10 µM (MMP 1): 48.2% | IC50 (MMP 9): 2.7 nM | IC50 (TACE): 277 nM
Compound: O=C(NO)C1(S(=O)(=O)c2ccc(OCc3ccccc3)cc2)CCN(Cc2ccccc2)CC1 [Example 241, 1-Benzyl-4-(4-benzyloxy-benzenesulfonyl)-piperidinefcarboxylic acid hydroxyamide]

MMP 13 % inhibition at 36 nM (HTS) (MMP 13 [1]): 18%
Compound: CCCCCCC(SCCc1ccccn1)C(=O)NO (stereo not shown) [Example 173, 2-(2-Pyridin-2-yl-ethylsulfanyl)-octanoic acid hydroxyaride]

MMP 13 % inhibition at 36 nM (HTS) (MMP 13 [1]): −18%
Compound: CCCCCCC(C(=O)NO)S(=O)(=O)c1cccc2cccnc12 (stereo not shown) [Example 196, 2-(Quinoline-8-sulfonyl)-octanoic acid hydroxyamde]

MMP 13 % inhibition at 0.2 μM (HTS) (MMP 13 [1]): 74%
Compound: CCCCCCC(C(=O)NO)S(=O)(=O)c1cccc(OC)c1 (stereo not shown) [Example 164, 2-(3-Methoxybenzenesulfonyl)tanoic acid hydroxyamide]

Compound: CCCCOc1ccc(S(=O)(=O)C2(C(=O)NO)CCN(CCCC)CC2)cc1 [Example 246, 1-n-Butyl-4-(4-butoxy-benzenesulfonyl)-piperidine-4-carboxylic acid hydroxyamide]
melting point: 121 °C | inhibition at 10 µM (MMP 1): 50.3% | IC50 (MMP 9): 28.3 nM | IC50 (TACE): 880 nM | IC50 (MMP 13 [2]): 2.4 nM

Compound: CCCCOc1ccc(S(=O)(=O)C2(C(=O)NO)CCN(CC)CC2)cc1 [Example 245, 1-Ethyl-4-(4-butoxy-benzenesulfonyl)-piperidine-4-carboxylic acid hydroxyamide]
melting point: 98 °C | IC50 (MMP 1): 7.06 µM | IC50 (MMP 9): 43.4 nM | inhibition at 10 µM (TACE; read-out: TACE % inhibition at 10 micromolar (*)): 52% | IC50 (MMP 13 [2]): 2.2 nM

melting point: 101 °C | IC50 (TACE): 44.9 nM
Compound: CCCC(Cc1ccc(OCCN2CCOCC2)cc1)(C(=O)NO)S(=O)(=O)c1ccc(OC)cc1 (stereo not shown) [Example 35, 2-(4-Methoxy-benzenesulfonyl)-2-[4-(2-morpholin-4-yl-ethoxy)-benzyl]-pentanoic acid hydroxyamide]

MMP 13 % inhibition at 0.2 μM (HTS) (MMP 13 [1]): 73%
Compound: C[S+]([O-])c1ccc([S+]([O-])C(COCc2ccccc2)C(=O)NO)cc1 (stereo not shown) [Example 147, 3-Benzyloxy-N-hydroxy-2-(4-methanesulfinyl-benzenesulfmyl)-propionamide]

MMP 13 % inhibition at 36 nM (HTS) (MMP 13 [1]): −39%
Compound: CCCCCCC(C(=O)NO)S(=O)(=O)CC1NC(=O)NC1=O (stereo not shown) [Example 198, 2-(2,5-Dioxo-inidazolidinylmethylsulfonyl)-octanoic acid hydroxyamide]

MMP 13 % inhibition at 0.2 μM (HTS) (MMP 13 [1]): 79%
Compound: O=C(CCC(C(=O)NO)[S+]([O-])c1ccc(Br)cc1)NO (stereo not shown) [Example 135, 4-Hydroxycarbamoyl-4-(4-bromo-benzenesulfinyl)-butyric acid hydfoxyamide]

MMP 13 % inhibition at 36 nM (HTS) (MMP 13 [1]): −9%
Compound: CCCCCCC(C(=O)NO)S(=O)(=O)c1nccs1 (stereo not shown) [Example 195, 2-(Thiazol-2-ylsulfonyl)-octanoic acid hydroxyamde]

MMP 13 % inhibition at 36 nM (HTS) (MMP 13 [1]): 10% | TACE % inhibition at 1 µM (TACE; 1 µM): 27.7%
Compound: CCCCCCC(SC1N=NN(c2ccccc2)N1)C(=O)NO (stereo not shown) [Example 174, 2-(2-Phenyl-5H-tetrazol-5-ylsulfanyl)-octanoic acid hydroxyanide]

MMP 13 % inhibition at 0.2 μM (HTS) (MMP 13 [1]): 20%
Compound: O=C(CCC(C(=O)NO)[S+]([O-])c1ccccc1C(F)(F)F)NO (stereo not shown) [Example 138, 4-Hydroxycarbamoyl-4-(2-triuoromethyl-benzenesulfmyl)-butyric acid hydroxyamide]

melting point: 123 to 124 °C
Compound: CCCCCC#CCC(Cc1cccnc1)(C(=O)NO)S(=O)(=O)c1ccc(F)cc1 (stereo not shown) [Example 77, 2-(4-Fluoro-benzenesulfonyl)-2-pyridin-3-ylmethyl-decfynoic acid hydroxyamide]

Compound: CCCCOc1ccc(S(=O)(=O)C2(C(=O)NO)CCN(Cc3ccc(C#N)cc3)CC2)cc1 (as salt: HCl) [Example 268, 4-(4-Butoxy-benzenesulfonyl)-1-(4-cyano-benzyl)-piperidine-4-hydroxamide carboxylic acid hydroxamide]
melting point: 241.6 °C

melting point: 158 °C
Compound: CCN1CCC(C(=O)NO)(S(=O)(=O)c2ccc(Oc3ccc(Cl)cc3)cc2)CC1 (as salt: HCl) [Example 250, 4-[4-(4-chloro-phenoxy)-benzenesulfonyl]1-ethyl-piperidine-4-carboxylic acid hydroxyamide]
